# Literature values as cited in patent US20040087563A1, “Hormone replacement therapy with cardiovascular protection using antialdosteronic progestins” (priority 2002, published 2004).
# Assays:
# [1] = tested on: renin-angiotensin-aldosterone system; conditions: healthy female volunteers
# [2] = molecular target: T1, mineralocorticoid receptor (Homo sapiens, UniProt P08235); conditions: compared with spironolactone
# T1 sequence (P08235 1-984): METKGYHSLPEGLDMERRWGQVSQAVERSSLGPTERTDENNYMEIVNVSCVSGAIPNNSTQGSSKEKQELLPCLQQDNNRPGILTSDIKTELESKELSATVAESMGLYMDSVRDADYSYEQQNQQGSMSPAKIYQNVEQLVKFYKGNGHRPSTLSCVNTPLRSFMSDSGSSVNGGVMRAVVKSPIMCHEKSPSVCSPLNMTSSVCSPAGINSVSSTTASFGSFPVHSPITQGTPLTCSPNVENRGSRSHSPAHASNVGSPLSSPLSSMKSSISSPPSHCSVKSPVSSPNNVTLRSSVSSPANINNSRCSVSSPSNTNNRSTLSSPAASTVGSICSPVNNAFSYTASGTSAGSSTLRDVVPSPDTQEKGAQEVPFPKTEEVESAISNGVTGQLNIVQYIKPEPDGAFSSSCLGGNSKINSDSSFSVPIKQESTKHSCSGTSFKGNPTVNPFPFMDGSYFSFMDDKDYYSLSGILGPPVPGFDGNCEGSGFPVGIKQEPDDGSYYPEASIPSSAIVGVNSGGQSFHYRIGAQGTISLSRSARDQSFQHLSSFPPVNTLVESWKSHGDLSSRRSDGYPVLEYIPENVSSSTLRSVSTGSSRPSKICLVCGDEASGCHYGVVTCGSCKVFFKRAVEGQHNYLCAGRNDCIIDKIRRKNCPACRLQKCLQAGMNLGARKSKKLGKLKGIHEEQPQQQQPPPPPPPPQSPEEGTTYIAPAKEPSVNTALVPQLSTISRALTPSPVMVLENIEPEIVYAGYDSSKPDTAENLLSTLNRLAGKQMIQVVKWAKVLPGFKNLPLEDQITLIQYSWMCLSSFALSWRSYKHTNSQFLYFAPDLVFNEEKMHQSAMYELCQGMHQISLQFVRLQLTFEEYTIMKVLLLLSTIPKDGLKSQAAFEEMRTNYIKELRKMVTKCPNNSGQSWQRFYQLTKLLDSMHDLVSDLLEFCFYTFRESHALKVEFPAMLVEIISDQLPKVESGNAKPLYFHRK
# [3] = patients with severe heart failure already receiving ACE inhibitor therapy
potency relative to spironolactone (antimineralocorticoid activity) [2],SMILES,plasma aldosterone levels [1],morbidity and mortality [3]
about 8 times,"C[C@]12CCC(=O)C=C1[C@@H]1C[C@@H]1[C@H]1[C@@H]3[C@@H]4C[C@@H]4[C@@]4(CCC(=O)O4)[C@@]3(C)CC[C@@H]12 [Drospirenone, 6β,7β;15β;16β-dimethylene-3-oxo-17α-preg-4-ene-21, 17-carbolactone]",increased,
,"CC(=O)S[C@@H]1CC2=CC(=O)CC[C@]2(C)[C@H]2CC[C@@]3(C)[C@@H](CC[C@@]34CCC(=O)O4)[C@H]12 [Spironolactone, 17-hydroxy-7-alpha-mercapto-3-oxo-17-alpha-pregn-4-ene-21-carboxylic acid gamma-lactone acetate]",,decrease the morbidity and mortality
